Results reported in patent publication US8802597B2, “Herbicidal pyrimidines” (E I du Pont de Nemours and Company, priority 2003, dated 2014).
Where two headings read alike, the source gives them in different places.

Assays:
Experiment in all cases: Test C pre/postemergence
Type in all cases: in vivo
[1] = system: common ragweed (Ambrosia elatior); conditions: Ambrosia artemisiifolia; for pest or weed control at 31 g/ha: 31 g ai/ha; for pest or weed control at 62 g/ha: 62 g ai/ha
Outline: (§1)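 Seeds sown and sprayed preemergence with test compound in non-phytotoxic solvent containing surfactant; postemergence sprays, same formulation, went onto plants 2 to 18 cm tall (1- to 4-leaf stage). Plants held in greenhouse 12 to 14 days, then visually rated against untreated controls on a 0–100 scale (0 no effect, 100 complete control).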

[2] = system: goosegrass (Eleusine indica); conditions: Eleusine indica; for pest or weed control at 31 g/ha: 31 g ai/ha; for pest or weed control at 62 g/ha: 62 g ai/ha; for pest or weed control at 125 g/ha: 125 g ai/ha
Outline: as §1

[3] = system: yellow nutsedge (Cyperus esculentus); conditions: Cyperus; for pest or weed control at 31 g/ha: 31 g ai/ha; for pest or weed control at 62 g/ha: 62 g ai/ha
Outline: as §1

[4] = system: soybean (Glycine max); conditions: Glycine max; for plant injury at 31 g/ha: 31 g ai/ha; for plant injury at 62 g/ha: 62 g ai/ha
Outline: as §1

[5] = system: eastern black nightshade (Solanum ptycanthum); conditions: Solanum, pre-emergence, Preemergence, scale 0 to 100, 0 no effect, 100 complete control, read-out: Plant response rating, Nightshade
Outline: as §1

[6] = system: woolly cupgrass (Eriochloa villosa); conditions: Eriochloa villosa; for pest or weed control at 31 g/ha: 31 g ai/ha; for pest or weed control at 62 g/ha: 62 g ai/ha
Outline: as §1

[7] = system: lambsquarters (Chenopodium album); conditions: Chenopodium album, post-emergence, Postemergence
Outline: as §1

[8] = post-emergence, Postemergence, read-out: Plant response rating (scale of 0 to 100), Ragweed
[9] = pre-emergence, Preemergence, scale 0 to 100, 0 no effect, 100 complete control, read-out: Plant response rating, Ragweed
[10] = post-emergence, Postemergence, read-out: Plant response rating (scale of 0 to 100), Goosegrass
[11] = pre-emergence, Preemergence, scale 0 to 100, 0 no effect, 100 complete control, read-out: Plant response rating, Goosegrass
[12] = post-emergence, Postemergence, read-out: Plant response rating (scale of 0 to 100), Nutsedge, Yellow
[13] = pre-emergence, Preemergence, scale 0 to 100, 0 no effect, 100 complete control, read-out: Plant response rating, Nutsedge, Yellow
[14] = post-emergence, Postemergence, read-out: Plant response rating (scale of 0 to 100), Soybean
[15] = pre-emergence, Preemergence, scale 0 to 100, 0 no effect, 100 complete control, read-out: Plant response rating, Soybean
[16] = post-emergence, Postemergence, read-out: Plant response rating (scale of 0 to 100), Cupgrass, Woolly
[17] = pre-emergence, Preemergence, scale 0 to 100, 0 no effect, 100 complete control, read-out: Plant response rating, Cupgrass, Woolly

Compound `Nc1nc(C2CC2)nc(C(=O)OCc2ccccc2)c1Cl` [Compound 78, phenylmethyl 6-amino-5-chloro-2-cyclopropyl-4-pyrimidinecarboxylate] has a pest or weed control at 31 g/ha [1, 8] of 70%, a pest or weed control at 62 g/ha [1, 8] of 85% and a pest or weed control at 125 g/ha ([1]; post-emergence, Postemergence, 125 g ai/ha, scale 0 to 100 (0 no effect, 100 complete control), read-out: Ragweed plant response rating) of 95%. It also gave a pest or weed control at 250 g/ha ([1]; post-emergence, Postemergence, 250 g ai/ha, scale 0 to 100, read-out: Plant response rating, Ragweed) of 100%, a pest or weed control at 16 g/ha ([1]; pre-emergence, Preemergence, 16 g ai/ha, scale 0 to 100, 0 no effect, 100 complete control, read-out: Plant response rating, Ragweed) of 10% and a pest or weed control at 31 g/ha [1, 9] of 65%. The pest or weed control at 62 g/ha [1, 9] was 80%, the pest or weed control at 31 g/ha [2, 10] was 0% and the pest or weed control at 62 g/ha [2, 10] was 0%. For the same compound, the pest or weed control at 125 g/ha ([2]; post-emergence, Postemergence, scale 0 to 100 (0 no effect, 100 complete control), read-out: Goosegrass plant response rating) was 40%, the pest or weed control at 250 g/ha ([2]; post-emergence, Postemergence, 250 g ai/ha, scale 0 to 100, read-out: Plant response rating, Goosegrass) was 50% and the pest or weed control at 16 g/ha ([2]; pre-emergence, Preemergence, 16 g ai/ha, scale 0 to 100, 0 no effect, 100 complete control, read-out: Plant response rating, Goosegrass) was 0%. For the same compound, the pest or weed control at 31 g/ha [2, 11] was 0%, the pest or weed control at 62 g/ha [2, 11] was 0% and the pest or weed control at 125 g/ha ([2]; pre-emergence, Preemergence, scale 0 to 100, read-out: Plant response rating, Goosegrass) was 0%. The pest or weed control at 31 g/ha [3, 12] was 0%, the pest or weed control at 62 g/ha [3, 12] was 0% and the pest or weed control at 125 g/ha ([3]; post-emergence, Postemergence, 125 g ai/ha, scale 0 to 100 (0 no effect, 100 complete control), read-out: Nutsedge, Yellow plant response rating) was 0%. It also gave a pest or weed control at 250 g/ha ([3]; post-emergence, Postemergence, 250 g ai/ha, scale 0 to 100, read-out: Plant response rating, Nutsedge, Yellow) of 0%, a pest or weed control at 16 g/ha ([3]; pre-emergence, Preemergence, 16 g ai/ha, scale 0 to 100, 0 no effect, 100 complete control, read-out: Plant response rating, Nutsedge, Yellow) of 0% and a pest or weed control at 31 g/ha [3, 13] of 0%. For the same compound, the pest or weed control at 62 g/ha [3, 13] was 0%, the plant injury at 31 g/ha [4, 14] was 90% and the plant injury at 62 g/ha [4, 14] was 100%. It also gave a plant injury at 125 g/ha ([4]; post-emergence, Postemergence, 125 g ai/ha, scale 0 to 100 (0 no effect, 100 complete control), read-out: Soybean plant response rating) of 100%, a plant injury at 250 g/ha ([4]; post-emergence, Postemergence, 250 g ai/ha, scale 0 to 100, read-out: Plant response rating, Soybean) of 100% and a plant injury at 16 g/ha ([4]; pre-emergence, Preemergence, 16 g ai/ha, scale 0 to 100, 0 no effect, 100 complete control, read-out: Plant response rating, Soybean) of 30%. It also gave a plant injury at 31 g/ha [4, 15] of 70%, a plant injury at 62 g/ha [4, 15] of 80% and a pest or weed control at 16 g/ha ([5]; 16 g ai/ha) of 0%. It also gave a pest or weed control at 31 g/ha ([5]; 31 g ai/ha) of 30%, a pest or weed control at 62 g/ha ([5]; 62 g ai/ha) of 60% and a pest or weed control at 31 g/ha [6, 16] of 50%. The pest or weed control at 62 g/ha [6, 16] was 55%, the pest or weed control at 250 g/ha ([6]; post-emergence, Postemergence, 250 g ai/ha, scale 0 to 100, read-out: Plant response rating, Cupgrass, Woolly) was 90% and the pest or weed control at 16 g/ha ([6]; pre-emergence, Preemergence, 16 g ai/ha, scale 0 to 100, 0 no effect, 100 complete control, read-out: Plant response rating, Cupgrass, Woolly) was 0%. It also gave a pest or weed control at 31 g/ha [6, 17] of 0%, a pest or weed control at 62 g/ha [6, 17] of 0% and a pest or weed control at 125 g/ha ([6]; pre-emergence, Preemergence, 125 g ai/ha, scale 0 to 100, read-out: Plant response rating, Cupgrass, Woolly) of 10%. The pest or weed control at 31 g/ha ([7]; 31 g ai/ha, read-out: Plant response rating (scale of 0 to 100), Lambsquarters) was 90%, the pest or weed control at 62 g/ha ([7]; 62 g ai/ha, read-out: Plant response rating (scale of 0 to 100), Lambsquarters) was 95% and the pest or weed control at 125 g/ha ([7]; 125 g ai/ha, scale 0 to 100 (0 no effect, 100 complete control), read-out: Lambsquarters plant response rating) was 95%.
